Data as given in patent publication US7772245B2, “Inhibitors of histone deacetylase” (Miikana Therapeutics, Inc., priority 2005, dated 2010).

Key:
HCT116 cells = assay: Whole cell cytotoxicity assay: Sulforhodamine B; format: cell-based; settings: Homo sapiens, HCT-116; 100 μM compound; 48 hours incubation with drug; Sulforhodamine B staining; read-out: % Inhibition of HCT116 cell growth @ 100 μM
Description: [The source words this procedure for another cell line and reports this cell line under the same test.] The following procedure can be found on the Developmental Therapeutics Program NCl/NIH web site at http://dtp.nci.nih.gov/brancehes/btb/ivclsp.html. • 1. Human tumor cell lines of HT29, A549 and MCF7 are grown in DMEM containing 10% fetal bovine serum and 2 mM L-glutamine. Cells are plated in a 96 well plate at a density of 5000 cells per well in 100 μL of growth medium and incubated at 37° C., 5% CO2, for 24 hours prior to the addition of experimental compounds. • 2. Experimental drugs are solubilized in DMSO for a final concentration of 20 mM immediately prior to use. Drugs are further diluted in growth media for a total of nine drug concentrations and a growth control. At the 24 hour time point, one plate of cells is fixed in situ with TCA as a measurement of the cell population at time zero, or the time of drug addition. • 3. The plates are further incubated with drug for an additional 48 hours. • 4. The cells are fixed in situ by gently aspirating off the culture media and then adding 50 μL of ice cold 10% TCA per well and incubated at 4° C. for 60 minutes. The plates are washed with tap water five times and allowed to air dry for 5 minute. • 5. 50 μL of a 0.4% (w/v) Sulforhodamine B solution in 1% (v/v) acetic acid is added per well and incubated for 30 minutes at room temperature. • 6. Following staining, plates are washed five times with 1% acetic acid to remove any unbound dye and then allowed to air dry for 5 minutes. • 7. Stain is solubilized with 100 μL of 10 mM Tris pH 10.5 per well and placed on an orbital rotator for 5 minutes. • 8. Absorbance is read at 570 nm.

HDAC = assay: In vitro fluorescent histone deacetylase assay (Biomol HDAC fluorescent activity kit, HeLa cell nuclear extract); format: biochemical; settings: 100 μM compound; HeLa cell nuclear extract as source of HDAC activity; 50 μM substrate, 10 min at room temperature
Description: Histone deacetylase (HDAC) activity assays were performed using the HDAC fluorescent activity assay/drug discovery kit (Biomol Research Laboratories, Plymouth Meeting, Pa.) essentially according to the manufacturer's instructions. The included HeLa cell nuclear extract, which contains a mosaic of HDAC enzymes and other nuclear factors, was used as the source of HDAC activity. The final substrate concentration in the assay mixture was 50 μM. The reaction was allowed to proceed for 10 min at room temperature before stopping the reaction. Test compounds were prepared as 20 mM stock solutions in DMSO (Molecular Biology grade, Sigma-Aldrich Co., St. Louis, Mo.) and stored at −70° C. Serial dilutions of test compounds were prepared in assay buffer immediately prior to testing. DMSO was determined in a separate trial to have no significant effect on the activity of this assay at concentrations up to 5%; the final DMSO concentration in the wells was no more than 2% and therefore DMSO effects were safely neglected. Assays were performed in white polystyrene 96-well half-area assay plates (Corning, Corning, N.Y.) and measured on a Wallace 1420 fluorescent plate reader (Wallac Oy, Turku, Finland) with an excitation wavelength of 355 nm, an emission wavelength of 460 nm, and a 1 sec signal averaging time.

Structure (SMILES): O=C(/C=C/c1ccc(CN2CCc3c([nH]c4ccccc34)C2)s1)NO [Example 3, (2E)-N-hydroxy-3-[5-(1,3,4,9-tetrahydro-2H-b-carbolin-2-ylmethyl)thien-2-yl]acrylamide]
- inhibition at 100 µM (HCT116 cells): 98.3%
- % Inhibition of HDAC @ 100 μM (HDAC): 97.9%

Structure (SMILES): O=C(NO)c1ccc(N2CCc3c([nH]c4ccccc34)C2)nc1 [Example 4, N-hydroxy-6-(1,3,4,9-tetrahydro-2H-b-carbolin-2-yl)nicotinamide]
- inhibition at 100 µM (HCT116 cells): 98.5%

Structure (SMILES): COc1cc2c(cc1OC)CN(c1ccc(C(=O)NO)cn1)CC2 [Example 5, 6-(6,7-dimethoxy-3,4-dihydroisoquinolin-2(1H)-yl)-N-hydroxynicotinamide]
- inhibition at 100 µM (HCT116 cells): 99.9%
- % Inhibition of HDAC @ 100 μM (HDAC): 99.7%

Structure (SMILES): O=C(NO)c1cnc(N2CCc3c([nH]c4ccccc34)C2)nc1 [Example 9, N-hydroxy-2-(1,3,4,9-tetrahydro-2H-b-carbolin-2-yl)pyrimidine-5-carboxamide]
- inhibition at 100 µM (HCT116 cells): 99.3%
- % Inhibition of HDAC @ 100 μM (HDAC): 99.9%

Structure (SMILES): COc1ccc2[nH]c3c(c2c1)CCN(c1ncc(C(=O)NO)cn1)C3 [Example 10, N-hydroxy-2-(6-methoxy-1,3,4,9-tetrahydro-2H-b-carbolin-2-yl)pyrimidine-5-carboxamide]
- inhibition at 100 µM (HCT116 cells): 98.4%
- % Inhibition of HDAC @ 100 μM (HDAC): 99.5%

Structure (SMILES): COc1cc2c(cc1OC)CN(c1ncc(C(=O)NO)cn1)CC2 [Example 11, 2-(6,7-dimethoxy-3,4-dihydroisoquinolin-2(1H)-yl)-N-hydroxypyrimidine-5-carboxamide]
- inhibition at 100 µM (HCT116 cells): 99%
- % Inhibition of HDAC @ 100 μM (HDAC): 99.8%

Structure (SMILES): O=C(NO)c1cnc(N2CCc3[nH]c4ccccc4c3C2)nc1 [Example 12, N-hydroxy-2-(1,3,4,5-tetrahydro-2H-pyrido[4,3-b]indol-2-yl)pyrimidine-5-carboxamide]
- inhibition at 100 µM (HCT116 cells): 98.7%
- % Inhibition of HDAC @ 100 μM (HDAC): 99.9%

Structure (SMILES): Cc1ccc2[nH]c3c(c2c1)CN(c1ncc(C(=O)NO)cn1)CC3 [Example 13, N-hydroxy-2-(8-methyl-1,3,4,5-tetrahydro-2H-pyrido[4,3-b]indol-2-yl)pyrimidine-5-carboxamide]
- inhibition at 100 µM (HCT116 cells): 99.1%
- % Inhibition of HDAC @ 100 μM (HDAC): 99.9%

Structure (SMILES): O=C(NO)c1cnc(N2CCc3[nH]c4ccc(Cl)cc4c3C2)nc1 [Example 14, 2-(8-chloro-1,3,4,5-tetrahydro-2H-pyrido[4,3-b]indol-2-yl)-N-hydroxypyrimidine-5-carboxamide]
- inhibition at 100 µM (HCT116 cells): 98.1%
- % Inhibition of HDAC @ 100 μM (HDAC): 99.9%

Structure (SMILES): O=C(NO)c1cnc(N2CCc3[nH]c4ccc(Br)cc4c3C2)nc1 [Example 15, 2-(8-bromo-1,3,4,5-tetrahydro-2H-pyrido[4,3-b]indol-2-yl)-N-hydroxypyrimidine-5-carboxamide]
- inhibition at 100 µM (HCT116 cells): 99%
- % Inhibition of HDAC @ 100 μM (HDAC): 99.8%

Structure (SMILES): O=C(NO)c1cnc(N2CCc3[nH]c4ccc(OC(F)(F)F)cc4c3C2)nc1 [Example 16, N-hydroxy-2-[8-(trifluoromethoxy)-1,3,4,5-tetrahydro-2H-pyrido[4,3-b]indol-2-yl]pyrimidine-5-carboxamide]
- inhibition at 100 µM (HCT116 cells): 99%
- % Inhibition of HDAC @ 100 μM (HDAC): 98.9%

Structure (SMILES): O=C(NO)c1ccc(N2CCc3c([nH]c4ccccc34)C2)cc1 [Example 18, N-hydroxy-4-(1,3,4,9-tetrahydro-2H-b-carbolin-2-yl)benzamide]
- inhibition at 100 µM (HCT116 cells): 98.5%

Structure (SMILES): O=C(NO)c1cnc(N2CCc3c([nH]c4ccccc34)C2)s1 [Example 19, N-hydroxy-2-(1,3,4,9-tetrahydro-2H-b-carbolin-2-yl)-1,3-thiazole-5-carboxamide]
- inhibition at 100 µM (HCT116 cells): 97.2%
- % Inhibition of HDAC @ 100 μM (HDAC): 97.6%

Structure (SMILES): O=C(/C=C/c1cnc(N2CCc3c([nH]c4ccccc34)C2)nc1)NO [Example 20, (2E)-N-hydroxy-3-[2-(1,3,4,9-tetrahydro-2H-b-carbolin-2-yl)pyrimidin-5-yl]acrylamide]
- inhibition at 100 µM (HCT116 cells): 98.2%
- % Inhibition of HDAC @ 100 μM (HDAC): 99.6%

Structure (SMILES): O=C(CCc1cnc(N2CCc3c([nH]c4ccccc34)C2)nc1)NO [Example 21, N-hydroxy-3-[2-(1,3,4,9-tetrahydro-2H-b-carbolin-2-yl)pyrimidin-5-yl]propanamide]
- inhibition at 100 µM (HCT116 cells): 94%
- % Inhibition of HDAC @ 100 μM (HDAC): 98.5%

Structure (SMILES): O=C(/C=C/c1ccc(N2CCc3c([nH]c4ccccc34)C2)cc1)NO [Example 22, (2E)-N-hydroxy-3-[4-(1,3,4,9-tetrahydro-2H-b-carbolin-2-yl)phenyl]acrylamide]
- inhibition at 100 µM (HCT116 cells): 98.2%
- % Inhibition of HDAC @ 100 μM (HDAC): 98.2%

Structure (SMILES): O=C(NO)c1cnc(N2CCc3c(n(CCN4CCCC4)c4ccccc34)C2)nc1 [Example 23, N-hydroxy-2-{9-[2-pyrrolidin-1-ylethyl]-1,3,4,9-tetrahydro-2H-b-carbolin-2-yl}pyrimidine-5-carboxamide]
- inhibition at 100 µM (HCT116 cells): 98.1%
- % Inhibition of HDAC @ 100 μM (HDAC): 99.3%

Structure (SMILES): O=C(NO)c1cnc(N2CCc3[nH]c4ccc(-c5cccc(C(=O)N6CCCC6)c5)cc4c3C2)nc1 [Example 42, N-hydroxy-2-{8-[3-(pyrrolidin-1-ylcarbonyl)phenyl]-1,3,4,5-tetrahydro-2H-pyrido[4,3-b]indol-2-yl}pyrimidine-5-carboxamide]
- inhibition at 100 µM (HCT116 cells): 88%

Structure (SMILES): O=C(NO)c1cnc(N2CCc3[nH]c4ccc(-c5cccnc5)cc4c3C2)nc1 [Example 47, N-hydroxy-2-{8-(pyridin-3-yl)-1,3,4,5-tetrahydro-2H-pyrido[4,3-b]indol-2-yl}pyrimidine-5-carboxamide]
- inhibition at 100 µM (HCT116 cells): 98.1%

Structure (SMILES): CC(=O)Nc1ccc2[nH]c3c(c2c1)CN(c1ncc(C(=O)NO)cn1)CC3 [Example 77, N-hydroxy-2-(8-(N-acetamido)-1,3,4,5-tetrahydro-2H-pyrido[4,3-b]indol-2-yl)pyrimidine-5-carboxamide]
- inhibition at 100 µM (HCT116 cells): 98.1%

Structure (SMILES): CS(=O)(=O)Nc1cccc(-c2ccc3[nH]c4c(c3c2)CN(c2ncc(C(=O)NO)cn2)CC4)c1 [Example 88, N-hydroxy-2-{8-[3-(N-methylsulfonamido)phenyl]-1,3,4,5-tetrahydro-2H-pyrido[4,3-b]indol-2-yl}pyrimidine-5-carboxamide]
- inhibition at 100 µM (HCT116 cells): 98.4%

Structure (SMILES): CN(C)Cc1cccc(-c2ccc3[nH]c4c(c3c2)CN(c2ncc(C(=O)NO)cn2)CC4)c1 [Example 92, N-hydroxy-2-{8-[3-(N,N-dimethylaminomethyl)phenyl]-1,3,4,5-tetrahydro-2H-pyrido[4,3-b]indol-2-yl}pyrimidine-5-carboxamide]
- inhibition at 100 µM (HCT116 cells): 98.9%

Structure (SMILES): O=C(NO)c1cnc(N2CCc3[nH]c4ccc(-c5ccc(CN6CCCC6)cc5)cc4c3C2)nc1 [Example 103, N-hydroxy-2-{8-[4-(pyrrolidin-1-ylmethyl)phenyl]-1,3,4,5-tetrahydro-2H-pyrido[4,3-b]indol-2-yl}pyrimidine-5-carboxamide]
- inhibition at 100 µM (HCT116 cells): 98.9%

Structure (SMILES): O=C(NO)c1cnc(N2CCc3[nH]c4ccc(-c5ccc(CN6CCSCC6)cc5)cc4c3C2)nc1 [Example 105, N-hydroxy-2-{8-[4-(thiomorpholin-4-ylmethyl)phenyl]-1,3,4,5-tetrahydro-2H-pyrido[4,3-b]indol-2-yl}pyrimidine-5-carboxamide]
- inhibition at 100 µM (HCT116 cells): 97%

Structure (SMILES): O=C(NO)c1cnc(N2CCc3[nH]c4ccc(F)cc4c3C2)nc1 [Example 111, N-hydroxy-2-(8-fluoro-1,3,4,5-tetrahydro-2H-pyrido[4,3-b]indol-2-yl)pyrimidine-5-carboxamide]
- inhibition at 100 µM (HCT116 cells): 97.7%

Structure (SMILES): O=C(NO)c1cnc(N2CCc3[nH]c4ccccc4c3CC2)nc1 [Example 114, N-hydroxy-2-(1,4,5,6-tetrahydroazepino[4,5-b]indol-3(2H)-1-yl)pyrimidine-5-carboxamide]
- inhibition at 100 µM (HCT116 cells): 99.3%

Structure (SMILES): O=C(NO)c1cnc(N2CCc3[nH]c4ccc(F)cc4c3CC2)nc1 [Example 115, N-hydroxy-2-(9-fluoro-1,4,5,6-tetrahydroazepino[4,5-b]indol-3(2H)-1-yl)pyrimidine-5-carboxamide]
- inhibition at 100 µM (HCT116 cells): 98.8%

Structure (SMILES): O=C(NO)c1cnc(N2CCc3[nH]c4cc(-c5cccc(CN6CCCC6)c5)ccc4c3C2)nc1 [Example 121, N-hydroxy-2-{7-[3-(pyrrolidin-1-ylmethyl)phenyl]-1,3,4,5-tetrahydro-2H-pyrido[4,3-b]indol-2-yl}pyrimidine-5-carboxamide]
- inhibition at 100 µM (HCT116 cells): 97.5%
